The record followed here is PubChem BioAssay AID204 (DTP/NCI, 2004).

SMILES strings stand for the structures. Values joined by “and” are separate entries in the source; they are usually repeats but may differ in a detail not shown here. Identical values can stand only once. Inconclusive results and toxic doses are left out.

For the experiment, the system named is BDF1 mice, P288 methotrexate-resistant leukemia, survival T/C. The experiment in a line: NCI In Vivo Anticancer Drug Screen. Data for tumor model P288 Lymphocytic Leukemia resistant to methotrexate; NSC 740 (intraperitoneal) in B6D2F1 (BDF1) mice. The following applies: endpoint: median survival time, higher = longer survival. As to the method:
The antitumor activity of compounds was measured in mice bearing transplantable tumors. Survival or tumor size were measured and the results are expressed as the measurement made in the treated group (T) divided by the measurement made in the vehicle treated control group (C). The tumor model used in this assay is P288 Lymphocytic Leukemia resistant to methotrexate; NSC 740 (intraperitoneal) in B6D2F1 (BDF1) mice

[1] abbreviates: dose: 5.0 mg/kg/injection, schedule: Q01DX010 (ip), vehicle: saline.
Setting [2] is: dose: 10.0 mg/kg/injection, schedule: Q01DX010 (ip), vehicle: saline.
[3] abbreviates: dose: 20.0 mg/kg/injection, schedule: Q01DX010 (ip), vehicle: saline.
The mark [4] stands for this setting: dose: 40.0 mg/kg/injection, schedule: Q01DX010 (ip), vehicle: saline.
Setting [5] is: dose: 3.13 mg/kg/injection, schedule: Q01DX010 (ip), vehicle: saline.
[6] abbreviates: dose: 6.25 mg/kg/injection, schedule: Q01DX010 (ip), vehicle: saline.
Setting [7] is: dose: 12.5 mg/kg/injection, schedule: Q01DX010 (ip), vehicle: saline.
The mark [8] stands for this setting: dose: 25.0 mg/kg/injection, schedule: Q01DX010 (ip), vehicle: saline.
The mark [9] stands for this setting: dose: 8.0 mg/kg/injection, schedule: Q01DX010 (ip), vehicle: saline.
The mark [10] stands for this setting: dose: 16.0 mg/kg/injection, schedule: Q01DX010 (ip), vehicle: saline.
Setting [11] is: dose: 2.0 mg/kg/injection, schedule: Q01DX010 (ip), vehicle: saline.
[12] abbreviates: dose: 4.0 mg/kg/injection, schedule: Q01DX010 (ip), vehicle: saline.
The mark [13] stands for this setting: dose: 12.5 mg/kg/injection, schedule: Q01DX010 (sc), vehicle: steriod suspending solution.
[14] abbreviates: dose: 25.0 mg/kg/injection, schedule: Q01DX010 (sc), vehicle: steriod suspending solution.
Where [15] appears, read: dose: 50.0 mg/kg/injection, schedule: Q01DX010 (sc), vehicle: steriod suspending solution.
Where [16] appears, read: dose: 100.0 mg/kg/injection, schedule: Q01DX010 (sc), vehicle: steriod suspending solution.
[17] abbreviates: dose: 200.0 mg/kg/injection, schedule: Q01DX010 (ip), vehicle: saline.
Setting [18] is: dose: 0.25 mg/kg/injection, schedule: Q01DX010 (ip), vehicle: saline.

For the compound `CN(C)c1ccc(/C=C/c2ccnc3ccccc23)cc1`, the T/C is 104 % of control under setting [1]; 90 % of control and 100 % of control under setting [2]; 90 % of control and 100 % of control under setting [3]; 90 % of control and 91 % of control under setting [4].
For the compound `[I][Hg][CH2]C1COC([CH2][Hg][I])CO1` (stereo not given), the T/C was 86 % of control (dose: 1.56 mg/kg/injection, schedule: Q01DX010 (ip), vehicle: saline); 95 % of control under setting [5]; 100 % of control under setting [6]; 100 % of control under setting [7]; 87 % of control under setting [8].
With `c1ccc(CNc2ncnc3[nH]ncc23)cc1`, the T/C is, setting by setting: under setting [9], 90 % of control and 115 % of control; under setting [10], 100 % of control and 110 % of control; (dose: 32.0 mg/kg/injection, schedule: Q01DX010 (ip), vehicle: saline) 100 % of control and 110 % of control; (dose: 64.0 mg/kg/injection, schedule: Q01DX010 (ip), vehicle: saline) 110 % of control.
In the case of `O=C(Nc1ccc(NC2=NCCN2)cc1)c1ccc(C(=O)Nc2ccc(NC3=NCCN3)cc2)cc1`, the T/C reads like this: under setting [11], 150 % of control; under setting [12], 240 % of control and 250 % of control; under setting [9], 250 % of control and 285 % of control; under setting [10], 115 % of control.
Regarding `CC/C(=C(/CC)c1ccc(O)cc1)c1ccc(O)cc1`, the T/C is 100 % of control and 110 % of control under setting [13]; 105 % of control under setting [14]; 100 % of control and 105 % of control under setting [15]; 90 % of control and 100 % of control under setting [16].
Take `CN(C)CC(=O)c1ccc(O)c(O)c1`: the T/C runs as follows: under setting [17], 110 % of control and 113 % of control; (dose: 300.0 mg/kg/injection, schedule: Q01DX010 (ip), vehicle: saline) 120 % of control and 122 % of control; (dose: 450.0 mg/kg/injection, schedule: Q01DX010 (ip), vehicle: saline) 115 % of control and 118 % of control; (dose: 675.0 mg/kg/injection, schedule: Q01DX010 (ip), vehicle: saline) 122 % of control.
On to `NC(Cc1ccc(N(CCCl)CCCl)cc1)C(=O)O` (stereo not given), for which the T/C is, setting by setting: (dose: 1.0 mg/kg/injection, schedule: Q01DX010 (ip), vehicle: other) 160 % of control; (dose: 2.0 mg/kg/injection, schedule: Q01DX010 (ip), vehicle: other) 165 % of control; (dose: 4.0 mg/kg/injection, schedule: Q01DX010 (ip), vehicle: other) 215 % of control; under setting [1], 160 % of control; under setting [2], 186 % of control; under setting [3], 105 % of control.
For the compound `S=P(N1CC1)(N1CC1)N1CC1`, the T/C reads like this: (dose: 0.75 mg/kg/injection, schedule: Q01DX010 (ip), vehicle: saline) 100 % of control and 111 % of control; (dose: 1.5 mg/kg/injection, schedule: Q01DX010 (ip), vehicle: saline) 111 % of control; (dose: 6.0 mg/kg/injection, schedule: Q01DX010 (ip), vehicle: saline) 116 % of control and 120 % of control.
For the compound `C[C@@H]1C[C@@H]([C@H](O)CC2CC(=O)NC(=O)C2)C(=O)[C@@H](C)C1`, the T/C is 93 % of control and 94 % of control under setting [1]; 88 % of control and 100 % of control under setting [2]; 100 % of control under setting [3]; 111 % of control under setting [4].
As for `Nc1nc(N)c2nc(CNc3ccc(C(=O)NC(CCC(=O)O)C(=O)O)cc3)cnc2n1` (stereo not given), the T/C is, setting by setting: (dose: 0.03 mg/kg/injection, schedule: Q01DX010 (ip), vehicle: other) 90 % of control and 111 % of control; (dose: 0.05 mg/kg/injection, schedule: Q01DX010 (ip), vehicle: other) 100 % of control; (dose: 0.1 mg/kg/injection, schedule: Q01DX010 (ip), vehicle: other) 100 % of control; (dose: 0.2 mg/kg/injection, schedule: Q01DX010 (ip), vehicle: other) 110 % of control and 111 % of control.
As for `OCC1OC(n2cnc3c(=S)nc[nH]c32)C(O)C1O` (stereo not given), the T/C by setting is: under setting [3], 100 % of control and 105 % of control; under setting [4], 95 % of control and 105 % of control; (dose: 80.0 mg/kg/injection, schedule: Q01DX010 (ip), vehicle: saline) 100 % of control and 110 % of control; (dose: 160.0 mg/kg/injection, schedule: Q01DX010 (ip), vehicle: saline) 100 % of control and 105 % of control.
As for `CC(CCC(C)OS(C)(=O)=O)OS(C)(=O)=O` (stereo not given), the T/C is 95 % of control under setting [12]; 87 % of control and 95 % of control under setting [9]; 95 % of control and 100 % of control under setting [10].
As to `O=c1[nH]cc(F)c(=O)[nH]1`, the T/C is 108 % of control under setting [1]; 159 % of control under setting [3]; 91 % of control and 95 % of control under setting [4].
Regarding `O=c1cnn(C2OC(CO)C(O)C2O)c(=O)[nH]1` (stereo not given), the T/C is 100 % of control under setting [17]; 100 % of control (dose: 400.0 mg/kg/injection, schedule: Q01DX010 (ip), vehicle: saline); 91 % of control (dose: 800.0 mg/kg/injection, schedule: Q01DX010 (ip), vehicle: saline).
With `CC(=O)O[C@]1(C(C)=O)CC[C@H]2[C@@H]3C[C@H](C)C4=CC(=O)C=C[C@]4(C)[C@@]3(F)[C@@H](O)C[C@@]21C`, the T/C is, setting by setting: under setting [13], 100 % of control; under setting [14], 110 % of control; under setting [15], 105 % of control; under setting [16], 100 % of control.
With `CS(=O)(=O)OCCCCOS(C)(=O)=O`, the T/C is, setting by setting: under setting [6], 87 % of control; under setting [7], 106 % of control; under setting [8], 93 % of control; (dose: 50.0 mg/kg/injection, schedule: Q01DX010 (ip), vehicle: saline) 87 % of control.
In the case of `C[C@H](N)C(=O)N[C@@H]1[C@H]2C(=C(O)C[C@@H](O)[C@@H]2O)C(=O)O[C@@H]1C`, the T/C (dose: 150.0 mg/kg/injection, schedule: Q01DX010 (ip), vehicle: saline) is 112 % of control; the T/C (dose: 600.0 mg/kg/injection, schedule: Q01DX010 (ip), vehicle: saline) is 150 % of control; the T/C (dose: 1200.0 mg/kg/injection, schedule: Q01DX010 (ip), vehicle: saline) is 183 % of control.
`Nc1ncnc2c1ccn2C1OC(CO)C(O)C1O` (stereo not given): the T/C is, setting by setting: under setting [18], 100 % of control; (dose: 0.5 mg/kg/injection, schedule: Q01DX010 (ip), vehicle: saline) 100 % of control; (dose: 1.0 mg/kg/injection, schedule: Q01DX010 (ip), vehicle: saline) 118 % of control; under setting [11], 100 % of control.
Turning to `CCCCn1cnc2c(=S)nc[nH]c21`, the T/C under setting [11] was 86 % of control, the T/C under setting [12] is 86 % of control and the T/C under setting [9] is 90 % of control.
Consider `N#[N+]c1cnc([O-])[nH]c1=O`, for which the T/C is, setting by setting: (dose: 1.25 mg/kg/injection, schedule: Q01DX010 (ip), vehicle: saline) 100 % of control; (dose: 2.5 mg/kg/injection, schedule: Q01DX010 (ip), vehicle: saline) 116 % of control and 118 % of control.
For the compound `O=C(O)CCCc1ccc(N(CCCl)CCCl)cc1`, the T/C under setting [5] is 90 % of control and 95 % of control; the T/C under setting [6] is 91 % of control and 100 % of control; the T/C under setting [7] is 115 % of control.
As to `C[N+](C)(C)c1ncnc2nc[nH]c12`, the T/C by setting is: (dose: 15.0 mg/kg/injection, schedule: Q01DX010 (ip), vehicle: saline) 90 % of control; (dose: 30.0 mg/kg/injection, schedule: Q01DX010 (ip), vehicle: saline) 100 % of control; (dose: 60.0 mg/kg/injection, schedule: Q01DX010 (ip), vehicle: saline) 90 % of control and 100 % of control; (dose: 120.0 mg/kg/injection, schedule: Q01DX010 (ip), vehicle: saline) 105 % of control and 113 % of control.
For `CC[C@]1(O)C[C@H]2CN(CCc3c([nH]c4ccccc34)[C@@](C(=O)OC)(c3cc4c(cc3OC)N(C=O)[C@H]3[C@@](O)(C(=O)OC)[C@H](OC(C)=O)[C@]5(CC)C=CCN6CC[C@]43[C@@H]65)C2)C1`, the T/C reads like this: (dose: 0.03 mg/kg/injection, schedule: Q01DX010 (ip), vehicle: saline) 121 % of control and 123 % of control; (dose: 0.06 mg/kg/injection, schedule: Q01DX010 (ip), vehicle: saline) 157 % of control; (dose: 0.12 mg/kg/injection, schedule: Q01DX010 (ip), vehicle: saline) 161 % of control and 162 % of control; under setting [18], 90 % of control.
As for `N=[N+]=CC(=O)OCC(N)C(=O)O` (stereo not given), the T/C by setting is: under setting [5], 110 % of control; under setting [6], 112 % of control and 120 % of control; under setting [7], 108 % of control and 120 % of control; under setting [8], 120 % of control.
